The target in assay [1] is Angiotensin-converting enzyme (Homo sapiens) (UniProt P12821). The experiment in a line: Selectivity index, ratio of Ki for human somatic ACE N-terminal domain to human somatic ACE C-terminal domain using MCA-RPPGFSAFK-Dnp-OH as substrate by fluorescence based analysis.
Assay [2] shares this target. In words: Selectivity index, ratio of Ki for human wild type ACE N-domain to Ki for human testis ACE C-domain (unknown origin) using Abz-FRK(Dnp)P-OH as substrate by fluorescence based analysis.
For assay [3] the target is unchanged. The experiment in a line: Selectivity index, ratio of Ki for human ACE N-domain soluble form (1 to 629 residues) expressed in CHO cells to Ki for human testis ACE C-domain lacking unique O-glycosylated region, transmembrane anchor and cytoplasmic tail expressed in CHO cells. The format is cell-based.

Sequence of Angiotensin-converting enzyme (Homo sapiens) (P12821 whole entry, the tested form may be a part): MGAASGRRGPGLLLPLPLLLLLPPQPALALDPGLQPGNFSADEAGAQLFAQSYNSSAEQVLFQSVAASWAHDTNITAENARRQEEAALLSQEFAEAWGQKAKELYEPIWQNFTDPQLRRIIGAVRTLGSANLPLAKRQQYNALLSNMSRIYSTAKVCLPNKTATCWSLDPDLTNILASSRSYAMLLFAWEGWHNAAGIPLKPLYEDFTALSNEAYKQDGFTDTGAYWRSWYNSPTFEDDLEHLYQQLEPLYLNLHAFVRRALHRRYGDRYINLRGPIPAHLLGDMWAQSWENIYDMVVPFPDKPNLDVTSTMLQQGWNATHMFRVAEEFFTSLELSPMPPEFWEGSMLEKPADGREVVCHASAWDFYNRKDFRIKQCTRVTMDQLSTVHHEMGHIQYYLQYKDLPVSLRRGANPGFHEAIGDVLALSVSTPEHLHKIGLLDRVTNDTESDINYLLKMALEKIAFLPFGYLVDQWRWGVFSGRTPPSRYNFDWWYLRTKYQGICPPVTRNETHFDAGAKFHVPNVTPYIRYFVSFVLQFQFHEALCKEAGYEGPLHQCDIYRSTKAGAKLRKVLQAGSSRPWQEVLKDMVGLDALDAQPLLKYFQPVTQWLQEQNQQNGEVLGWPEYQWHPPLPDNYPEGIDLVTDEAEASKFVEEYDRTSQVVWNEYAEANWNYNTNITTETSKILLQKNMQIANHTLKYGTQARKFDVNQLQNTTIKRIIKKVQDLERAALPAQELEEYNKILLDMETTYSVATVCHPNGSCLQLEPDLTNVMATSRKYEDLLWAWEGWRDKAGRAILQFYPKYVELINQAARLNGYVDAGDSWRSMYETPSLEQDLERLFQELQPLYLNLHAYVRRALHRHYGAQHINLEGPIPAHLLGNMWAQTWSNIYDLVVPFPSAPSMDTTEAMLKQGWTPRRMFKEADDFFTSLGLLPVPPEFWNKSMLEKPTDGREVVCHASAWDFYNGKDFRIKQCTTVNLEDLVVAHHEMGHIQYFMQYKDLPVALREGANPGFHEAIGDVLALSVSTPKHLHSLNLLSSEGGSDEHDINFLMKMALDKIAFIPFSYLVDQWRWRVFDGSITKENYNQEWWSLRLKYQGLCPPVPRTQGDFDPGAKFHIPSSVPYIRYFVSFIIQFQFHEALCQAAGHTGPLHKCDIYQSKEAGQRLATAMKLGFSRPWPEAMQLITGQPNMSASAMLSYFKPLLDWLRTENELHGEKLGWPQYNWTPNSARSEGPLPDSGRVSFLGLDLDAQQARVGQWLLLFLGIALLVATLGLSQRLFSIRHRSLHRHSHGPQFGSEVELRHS

On to `O=C(N[C@@H](Cc1ccccc1)P(=O)(O)[C@@H]1CCC[C@H]1C(=O)N[C@@H](Cc1c[nH]c2ccccc12)C(=O)O)OCc1ccccc1`, for which, in assay [1], the Ratio Ki came out at 3000. For `NCCCC[C@H](N[C@@H](CCc1ccccc1)C(=O)O)C(=O)N1CCC[C@H]1C(=O)O`, the Ratio Ki in assay [2] turned out to be 4. With `CS(=O)(=O)N[C@@H](CCCCN)C(=O)NC[C@H](CC1(C(=O)N[C@@H](Cc2ccc(O)cc2)C(=O)O)CCCC1)C(=O)O`, the Ratio Ki in assay [3] was determined as 12.5.

Regarding `NCCCC[C@H](N[C@@H](CCc1ccccc1)C(=O)O)C(=O)N[C@H](Cc1c[nH]c2ccccc12)C(=O)O`, the Ratio Ki in assay [2] came out at 243.

(Values after ChEMBL document CHEMBL4402607, “Molecular Basis for Omapatrilat and Sampatrilat Binding to Neprilysin-Implications for Dual Inhibitor Design with Angiotensin-Converting Enzyme” (J Med Chem, 2020).)
